The term inhibition denotes the relative decrease from the control value, in per cent.

Like-named read-outs stand apart in the source and are kept apart here.

From patent US20240299395A1, “COMBINATION THERAPIES COMPRISING WEE1 INHIBITORS AND DNA DAMAGE RESPONSE (DDR) INHIBITORS” (Recurium IP Holdings, LLC, priority 2021, published 2024) come the findings set out here.

Holding throughout (type): cell-based
In experiment [1] the test system is MDA-MB-231 (TNBC) cell line. Briefly: CellTiter-Glo (CTG) cell viability, MDA-MB-231. The following applies: for single agent activity (figure legend): MDA-MB-231, FIGS. 1-2, 72 h. The procedure: (§1) 20,000 MDA-MB-231 cells were incubated in a 96 well plate as a triplicate with 500 nM of ZN-c3 and 10 nM of CHK inhibitor or 700 nM of ATR inhibitor as a single agent or the combination of both for 72 h. 20,000 H23 cells were incubated in a 96 well plate as a triplicate with 150 nM of ZN-c3 and 5 nM of CHK inhibitor or 500 nM of ATR inhibitor as a single agent or the combination of both for 72 h. 10,000 MV4-11 cells were incubated in a 96 well plate as a triplicate with 400 nM of ZN-c3 and 2 nM of CHK inhibitor or 2000 nM of ATM inhibitor as a single agent or the combination of both for 72 h. 20,000 THP-1 cells were incubated in a 96 well plate as a triplicate with 600 nM of ZN-c3 and 4 nM of CHK inhibitor or 1000 nM of ATR inhibitor as a single agent or the combination of both for 72 h. 10,000 HL-60 cells were incubated in a 96 well plate as a triplicate with 750 nM of ZN-c3 and 15 nM of CHK inhibitor or 2000 nM of ATM inhibitor as a single agent or the combination of both for 72 h. 10,000 LNCaP cells were incubated in a 96 well plate as a triplicate with 500 nM of ZN-c3 and 10 nM of CHK inhibitor or 1000 nM of ATM inhibitor as a single agent or the combination of both for 72 h. For each cell line, the cell viability was assessed using a CellTiter-Glo® (CTG) assay.
(Cellular ATP, detected with luciferase, serves as a proxy for viable cell number.)

A further experiment relates to H23 (NSCLC) cell line. The experiment can be described thus: CellTiter-Glo (CTG) cell viability, H23. The following applies: for single agent activity (figure legend): H23, FIGS. 3-4, 72 h. The procedure: as §1
A further experiment has as its system HL-60 (AML) cell line. The experiment can be described thus: CellTiter-Glo (CTG) cell viability, HL-60. The settings on record: for single agent activity (figure legend): HL-60, FIGS. 9-11, 72 h. The procedure: as §1
(§2) 10,000 MV4-11 cells were incubated in a 96 well plate as a triplicate with 2 nM of ZN-d5, 400 nM of ZN-c3 and 2 nM of CHK inhibitor or 2000 nM of ATM inhibitor or 150 nM of ATR inhibitor as a single, double or triple combination for 72 h. 20,000 THP-1 cells were incubated in a 96 well plate as a triplicate with 100 nM of ZN-d5, 600 nM of ZN-c3 and 4 nM of CHK inhibitor or 1000 nM of ATM inhibitor or 1000 nM of ATR inhibitor as a single, double or triple combination for 72 h. 10,000 HL-60 cells were incubated in a 96 well plate as a triplicate with 75 nM of ZN-d5, 750 nM of ZN-c3 and 15 nM of CHK inhibitor or 2000 nM of ATM inhibitor or 1000 nM of ATR inhibitor as a single, double or triple combination for 72 h. For each cell line, the cell viability was assessed using a CellTiter-Glo® (CTG) assay.

The test system of another experiment is THP-1 (AML) cell line. The experiment can be described thus: CellTiter-Glo (CTG) cell viability, THP-1. The settings on record: for single agent activity (figure legend): THP-1, FIGS. 7-8, 72 h. The procedure:
as §1, §2

The test system of a further experiment is MV4-11 (AML) cell line. Briefly: CellTiter-Glo (CTG) cell viability, MV4-11. The following applies: for single agent activity (figure legend): MV4-11, FIGS. 5-6, 72 h. The procedure:
as §1, §2

Experiment [2] has as its system LNCaP (Prostate) cell line. Briefly: CellTiter-Glo (CTG) cell viability, LNCaP. The settings on record: for single agent activity (figure legend): FIGS. 12-13, 72 h. The procedure:
as §1

Where [3] appears, read: Table 1, 500 nM ZN-c3, 10 nM CHK inhibitor, single agent or combination, 72 h.
The mark [4] stands for this setting: Table 1, 150 nM ZN-c3, 5 nM CHK inhibitor, single agent or combination, 72 h.
Setting [5] is: Table 4, 75 nM ZN-d5, 750 nM ZN-c3, 15 nM CHK inhibitor, 2000 nM ATM inhibitor, 1000 nM ATR inhibitor, single, double or triple combination, 72 h.
The mark [6] stands for this setting: Table 4, 100 nM ZN-d5, 600 nM ZN-c3, 4 nM CHK inhibitor, 1000 nM ATM inhibitor, 1000 nM ATR inhibitor, single, double or triple combination, 72 h.
The mark [7] stands for this setting: Table 4, 2 nM ZN-d5, 400 nM ZN-c3, 2 nM CHK inhibitor, 2000 nM ATM inhibitor, 150 nM ATR inhibitor, single, double or triple combination, 72 h.
The mark [8] stands for this setting: Homo sapiens, HL-60, 72 h, Table 4, 75 nM ZN-d5, 750 nM ZN-c3, 15 nM CHK inhibitor, 2000 nM ATM inhibitor, 1000 nM ATR inhibitor, single, double or triple combination, 72 h, read-out: HL60 % Inhibition.
The mark [9] stands for this setting: Homo sapiens, THP-1, 72 h, Table 4, 100 nM ZN-d5, 600 nM ZN-c3, 4 nM CHK inhibitor, 1000 nM ATM inhibitor, 1000 nM ATR inhibitor, single, double or triple combination, 72 h.
Setting [10] is: Homo sapiens, MV4-11, 72 h, Table 4, 2 nM ZN-d5, 400 nM ZN-c3, 2 nM CHK inhibitor, 2000 nM ATM inhibitor, 150 nM ATR inhibitor, single, double or triple combination, 72 h.

As to `COc1cccc(OCCCN)c1-c1cc(Nc2cnc(C#N)cn2)n[nH]1` [CHKi, Prexasertib], the “single agent activity (figure legend)” value is on record as “single agent activity was observed” in experiment [1]; “practically no activity” with H23 (NSCLC) cell line; “no activity” with HL-60 (AML) cell line; “no activity” in the experiment with MV4-11 (AML) cell line; “single agent activity was observed” in experiment [2] (LNCaP). The “MDA-MB-231 % Inhibition” value in experiment [1] (setting [3]) is reported as 26%. Further, the “H23 % Inhibition” value in the experiment on H23 (NSCLC) cell line (setting [4]) was 1%. Further, the “HL60 % Inhibition” value amounted to 0% in the experiment on HL-60 (AML) cell line (Table 1, 750 nM ZN-c3, 15 nM CHK inhibitor, single agent or combination, 72 h) and 0% in the experiment with HL-60 (AML) cell line (setting [5]). Moreover, the “THP % Inhibition” value in the experiment with THP-1 (AML) cell line (Table 1, 600 nM ZN-c3, 4 nM CHK inhibitor, single agent or combination, 72 h) came to 32%; in the experiment on THP-1 (AML) cell line (setting [6]), 32.29%. Moreover, the “MV4; 11 % Inhibition” value is listed as 0% with MV4-11 (AML) cell line (Table 1, 400 nM ZN-c3, 2 nM CHK inhibitor, single agent or combination, 72 h) and 0% in the experiment on MV4-11 (AML) cell line (setting [7]). Besides, the “LNCaP % Inhibition” value in experiment [2] (setting [3]) is recorded as 14%.
As to `C=CCn1c(=O)c2cnc(Nc3ccc(N4CCN(C)CC4)cc3)nc2n1-c1ccc2c(n1)[C@@](O)(CC)CC2` [ZN-c3], the inhibition at 0.5 µM in experiment [1] (Homo sapiens, MDA-MB-231, Table 1, 500 nM ZN-c3, 10 nM CHK inhibitor, single agent or combination, 72 h) was determined as 35%; in experiment [2] (Homo sapiens, LNCaP, Table 1, 500 nM ZN-c3, 10 nM CHK inhibitor, single agent or combination, 72 h) it was 24%. For the same compound, the “single agent activity (figure legend)” value (in experiment [1]; in the experiment with H23 (NSCLC) cell line; in the experiment with HL-60 (AML) cell line; in the experiment on THP-1 (AML) cell line; with MV4-11 (AML) cell line; in experiment [2] (LNCaP)) was “single agent activity was observed” each time. Moreover, the inhibition at 0.15 µM with H23 (NSCLC) cell line (setting [4]) is 22%. For the same compound, the inhibition at 0.75 µM in the experiment on HL-60 (AML) cell line (Homo sapiens, HL-60, 72 h, Table 1, 750 nM ZN-c3, 15 nM CHK inhibitor, single agent or combination, 72 h, read-out: HL60 % Inhibition) came out at 25%; with HL-60 (AML) cell line (Homo sapiens, HL-60, 72 h, Table 3, 750 nM ZN-c3, 2000 nM ATM inhibitor, single agent or combination, 72 h, read-out: HL60 % Inhibition) it was 25%; with HL-60 (AML) cell line (setting [8]) it was 25.5%. The inhibition at 0.6 µM came to 18% in the experiment on THP-1 (AML) cell line (Homo sapiens, THP-1, 72 h, Table 1, 600 nM ZN-c3, 4 nM CHK inhibitor, single agent or combination, 72 h); 18% in the experiment on THP-1 (AML) cell line (Homo sapiens, THP-1, 72 h, Table 2, 600 nM ZN-c3, 1000 nM ATR inhibitor, single agent or combination, 72 h); 18.1% in the experiment with THP-1 (AML) cell line (setting [9]). For the same compound, the inhibition at 0.4 µM with MV4-11 (AML) cell line (Homo sapiens, MV4-11, 72 h, Table 1, 400 nM ZN-c3, 2 nM CHK inhibitor, single agent or combination, 72 h) was 49%; in the experiment on MV4-11 (AML) cell line (Homo sapiens, MV4-11, 72 h, Table 3, 400 nM ZN-c3, 2000 nM ATM inhibitor, single agent or combination, 72 h), 49%; with MV4-11 (AML) cell line (setting [10]) it was 49.2%.
Turning to `CNCc1ccc(-c2cc(-c3nc(-c4ccc(S(=O)(=O)C(C)C)cc4)cnc3N)on2)cc1` [ATRi, Berzosertib], the “single agent activity (figure legend)” value (in experiment [1]; in the experiment on H23 (NSCLC) cell line; in the experiment with HL-60 (AML) cell line) was “single agent activity was observed” each time. The “MDA-MB-231 % Inhibition” value in experiment [1] (Table 2, 500 nM ZN-c3, 700 nM ATR inhibitor, single agent or combination, 72 h) came out at 33%. For the same compound, the “H23 % Inhibition” value with H23 (NSCLC) cell line (Table 2, 150 nM ZN-c3, 500 nM ATR inhibitor, single agent or combination, 72 h) is listed as 35%. For the same compound, in the experiment on HL-60 (AML) cell line (Homo sapiens, HL-60, 72 h, Table 2, 750 nM ZN-c3, ATR inhibitor (1000 nM), single agent or combination, 72 h, read-out: HL60 % Inhibition), the inhibition at 1 µM came to 15%. Moreover, in the experiment with HL-60 (AML) cell line (setting [5]), the “HL60 % Inhibition” value turned out to be 15.91%. Moreover, the “THP % Inhibition” value in the experiment with THP-1 (AML) cell line (Table 2, 600 nM ZN-c3, 1000 nM ATR inhibitor, single agent or combination, 72 h) is given as 37%; in the experiment with THP-1 (AML) cell line (setting [6]) it was 36.93%. The “MV4; 11 % Inhibition” value in the experiment on MV4-11 (AML) cell line (setting [7]) is listed as 13.99%.
For the compound `CN(C)CCCOc1ccc(-c2ccc3ncc4c(c3c2)n(C2CCOCC2)c(=O)n4C)cn1` [ATMi, AZD0156], the “single agent activity (figure legend)” value was “practically no activity” with HL-60 (AML) cell line, “single agent activity was observed” in the experiment on THP-1 (AML) cell line, “single agent activity was observed” with MV4-11 (AML) cell line and “single agent activity was observed” in experiment [2] (LNCaP). Besides, the “HL60 % Inhibition” value is 3% in the experiment on HL-60 (AML) cell line (Table 3, 750 nM ZN-c3, 2000 nM ATM inhibitor, single agent or combination, 72 h) and 2.95% in the experiment on HL-60 (AML) cell line (setting [5]). Also, in the experiment on THP-1 (AML) cell line (setting [6]), the “THP % Inhibition” value was determined as 19.52%. Moreover, the “MV4; 11 % Inhibition” value was determined as 18% in the experiment on MV4-11 (AML) cell line (Table 3, 400 nM ZN-c3, 2000 nM ATM inhibitor, single agent or combination, 72 h) and 18.48% in the experiment on MV4-11 (AML) cell line (setting [7]). The “LNCaP % Inhibition” value in experiment [2] (Table 3, 500 nM ZN-c3, 1000 nM ATM inhibitor, single agent or combination, 72 h) is listed as 14%.
Consider `CC1(C)CCC(CN2CCN(c3ccc(C(=O)NS(=O)(=O)c4ccc(NC[C@H]5CC[C@](C)(O)CC5)c([N+](=O)[O-])c4)c(Oc4cnc5[nH]ccc5c4)c3)CC2)=C(C23CC(C(F)F)(C2)C3)C1` [ZN-d5, 2-((1H-pyrrolo[2,3-b]pyridin-5-yl)oxy)-4-(4-((2-(3-(difluoromethyl)bicyclo[1.1.1]pentan-1-yl)-4,4-dimethylcyclohex-1-en-1-yl)methyl)piperazin-1-yl)-N-((4-((((1r,4r)-4-hydroxy-4-methylcyclohexyl)methyl)amino)-3-nitrophenyl)sulfonyl)benzamide], for which the inhibition at 0.075 µM with HL-60 (AML) cell line (setting [8]) is 37.6%. Moreover, in the experiment on THP-1 (AML) cell line (setting [9]), the inhibition at 0.1 µM was found to be 2.6%. For the same compound, the inhibition at 0.002 µM in the experiment on MV4-11 (AML) cell line (setting [10]) came to 8.44%.
